# Laboratory results reported in EP0262785A1, “N-[2-(4-carboxymethoxyphenyl)-1-methylethyl]-2-hydroxy-2-(3-chlorophenyl)ethane amine, the methyl ester, salt and stereoisomeric forms thereof” (BEECHAM GROUP PLC, priority 1986, dated 1988).
# Tests used:
# Female CFLP mice = experiment: Anti-hyperglycaemic activity (subcutaneous glucose load, blood glucose curve); assay type: in vivo; conditions: Dose 0.02 µmol/kg orally as aqueous solution, 6 mice fasted for 24 hours; glucose 1g/kg subcutaneously 30 minutes later; area over the 2 hour period compared with control mice given water
# Method: Female CFLP mice, weighing approximately 25 g, were fasted for 24 hours prior to the study. The compound under study was administered orally as an aqueous solution to each of 6 mice. 30 minutes later a blood sample (10µl) was obtained from the tail for the analysis of blood glucose. Immediately after taking this blood sample, glucose (1g/kg body weight) was administered subcutaneously to each mouse. 6 mice were given water as a control. Blood samples were then obtained from each mouse at 30 minute intervals for 120 minutes. Compounds that produce a significant (P<0.05) reduction of blood glucose, compared with control mice given water, at any time interval, are considered active. The area under the blood glucose curve over the 2 hour period after the administration of the glucose was calculated for the compound and compared with the value for control animals.
# Male Sprague-Dawley rats = experiment: Effect on Energy Expenditure of Rats; assay type: in vivo; conditions: Dose 0.2 µmol/kg p.o. in water, rats deprived of food, percentage of the rate of energy expenditure of the rats dosed with water
# Method: Water was provided ad lib at all times. The compounds were administered orally in water to 3 or 4 rats. A further 4 rats were dosed orally with water. The rats were placed in boxes through which air was drawn and the oxygen content of the air leaving the boxes was measured. The energy expenditure of the rats was calculated for 3 hours and for 21 hours after dosing from the volume of air leaving the boxes and its oxygen content, following the principles described by J.B. de V. Weir, J. Physiol. (London) 109, 1-9 (1949). The results are expressed as a percentage of the rate of energy expenditure of the rats dosed with water.
structure (smiles),measurement,setting,value
"COC(=O)COc1ccc(C[C@@H](C)NC[C@H](O)c2cccc(Cl)c2)cc1 [Example 1, N-[2-(4-Carbomethoxymethoxyphenyl)-1-(R)-1-methylethyl-2-(R)-2-hydroxy-2-(3-chlorophenyl)ethananine, hemifumarate]",% Reduction in area under Blood Glucose Curve,Female CFLP mice,51%
same,Mean Energy Expenditure (0-3h),Male Sprague-Dawley rats; 3 hours after dosing,134 percentage
same,Mean Energy Expenditure (0-21h),Male Sprague-Dawley rats; 21 hours after dosing,111 percentage
